The values that follow are results of earlier work, collected in patent US6638431B2, “Formulation and method for treating wetted surface elements in climate control systems” (Mainstream Engineering Corporation, priority 2001, dated 2003).

The structures appear in SMILES notation.

This data set has as its system Legionella pneumophilia.

Consider `[Ag]` [Ag, silver], for which the “concentration in water effective against Legionella pneumophilia” value was “about 0.02 ppm”.
